Data on 42 compounds can be found in patent US11253499B2, “Compounds” (priority 2017, dated 2022).

Where two headings read alike, the source gives them in different places.

In test [1] the test system is Mycobacterium tuberculosis H37Rv in human macrophages THP-1.
Experimental: Mycobacterium tuberculosis In Vitro H37Rv in Human Macrophaqes THP-1 Inhibition Assay (Intracellular Assay)
Procedure was carried out as described in Sorrentino, F. et al. (2016) Antimicrob. Agents Chemother. 60 (1), 640-645 (supplemental material), except that before THP-1 infected cells were seeded in 384 well plates, infected macrophages were filtered in the last step of wash steps with a 40 um cell strainer to remove cell clumps and obtain single cell suspension.
The compounds of the examples were tested essentially in accordance with the above-mentioned assay (without the presence of ethionamide).
In test [2] the test system is M. tuberculosis H37Rv-GFP. It is filed as cell-based, Mycobacterium tuberculosis. The note with it: read-out: EC50_H37Rv.
Where [3] appears, read: potentiation of ethionamide, ETH 0.1 μg/ml, […], 5 days at 37° C., […].

The IC50 is the concentration that inhibits the measured activity by half. Higher therefore signals a need for much substance. For the compound `O=C(CCC(F)(F)F)N1CC(c2ccc(F)cc2Cl)C1` [Example 20, 1-[3-(2-chloro-4-fluoro-phenyl)azetidin-1-yl]-4,4,4-trifluoro-butan-1-one], the IC50 in test [1] fell in the range of 50 to 250 nM. Also, in test [2], the EC50 was in the range of 50 to 250 nM.
In the case of `O=C(CCC(F)(F)F)N1CC(c2ccc(Cl)cc2)C1` [Example 13, 1-[3-(4-chlorophenyl)azetidin-1-yl]-4,4,4-trifluoro-butan-1-one], the IC50 in test [1] lay in the range of 50 to 250 nM. Also, in test [2], the EC50 is less than 50 nM.
In the same order, the values of `O=C(CCC(F)(F)F)N1CC(c2ccc(C(F)(F)F)nc2)C1` [Example 21, 4,4,4-trifluoro-1-[3-[6-(trifluoromethyl)-3-pyridyl]azetidin-1-yl]butan-1-one] are 250 to 500 nM and 1000 to 10000 nM.
For `COc1ccc(C2CN(C(=O)CCC(F)(F)F)C2)cn1` [Example 22, 4,4,4-trifluoro-1-[3-(6-methoxy-3-pyridyl)azetidin-1-yl]butan-1-one], in test [2] (setting [3]), the EC50 was less than 50 nM.
`O=C(CCC(F)(F)F)N1CC(c2ncc(F)cc2F)C1` [Example 10, 1-[3-(3,5-difluoro-2-pyridyl)azetidin-1-yl]-4,4,4-trifluoro-butan-1-one]: in test [2] (setting [3]), the EC50 was less than 50 nM.
`O=C(CCC(F)(F)F)N1CC(c2cc(F)c(F)c(F)c2)C1` [Example 34, 4,4,4-trifluoro-1-[3-(3,4,5-trifluorophenyl)azetidin-1-yl]butan-1-one] yielded an IC50 in test [1] of 50 to 250 nM. Besides, the EC50 in test [2] is less than 50 nM.
On to `O=C(CCC(F)(F)F)N1CC(c2ccnc(Cl)c2)C1` [Example 32, 1-[3-(2-chloro-4-pyridyl)azetidin-1-yl]-4,4,4-trifluoro-butan-1-one], for which the EC50 in test [2] (setting [3]) is 250 to 500 nM.
For the compound `CC(C)Oc1ccc(C2CN(C(=O)CCC(F)(F)F)C2)cn1` [Example 36, 4,4,4-trifluoro-1-[3-(6-isopropoxy-3-pyridyl)azetidin-1-yl]butan-1-one], the EC50 in test [2] (setting [3]) was 50 to 250 nM.
Compound `O=C(CCC(F)(F)F)N1CC(c2cncc(Cl)c2)C1` [Example 23, 1-[3-(5-chloro-3-pyridyl)azetidin-1-yl]-4,4,4-trifluoro-butan-1-one] returned an IC50 in test [1] of less than 50 nM. Besides, the EC50 in test [2] lay within 250 to 500 nM.
In the same order, the values of `O=C(CCCC(F)(F)F)N1CC(c2ccc(F)cc2)C1` [Example 3, 5,5,5-trifluoro-1-[3-(4-fluorophenyl)azetidin-1-yl]pentan-1-one] are 50 to 250 nM and less than 50 nM.
In test [1], `Cc1cc(F)ccc1C1CN(C(=O)CCC(F)(F)F)C1` [Example 28, 4,4,4-trifluoro-1-[3-(4-fluoro-2-methyl-phenyl)azetidin-1-yl]butan-1-one] showed an IC50 of 50 to 250 nM. For the same compound, in test [2], the EC50 lay within 50 to 250 nM.
For the compound `O=C(CCC(F)(F)F)N1CC(N2CCCCC2)C1` [Example 39, 4,4,4-trifluoro-1-(3-(piperidin-1-yl)azetidin-1-yl)butan-1-one], the EC50 in test [2] (setting [3]) lay within 1000 to 10000 nM.
Same read-out and setting: as for `O=C(CCC(F)(F)F)N1CC(N2CCC(F)(F)CC2)C1` [Example 35, 1-[3-(4,4-difluoro-1-piperidyl)azetidin-1-yl]-4,4,4-trifluoro-butan-1-one], the figure is 500 to 1000 nM.
Compound `O=C(CCC(F)(F)F)N1CC(C2CCOCC2)C1` [Example 38, 4,4,4-trifluoro-1-(3-(tetrahydro-2H-pyran-4-yl)azetidin-1-yl)butan-1-one] yielded an IC50 in test [1] of 50 to 250 nM. In test [2], the EC50 fell in the range of 250 to 500 nM.
In the same order, the values of `O=C(CCC(F)(F)F)N1CC(c2ccc(F)cc2)C1` [Example 1, 4,4,4-trifluoro-1-[3-(4-fluorophenyl)azetidin-1-yl]butan-1-one] are less than 50 nM and less than 50 nM.
Consider `O=C(CCC(F)(F)F)N1CC(c2ccc(F)nc2)C1` [Example 33, 4,4,4-trifluoro-1-[3-(6-fluoro-3-pyridyl)azetidin-1-yl]butan-1-one], for which the EC50 in test [2] (setting [3]) lay within 500 to 1000 nM.
`O=C(CCC(F)(F)F)N1CC(c2cccc(OC(F)(F)F)c2)C1` [Example 15, 4,4,4-trifluoro-1-[3-[3-(trifluoromethoxy)phenyl]azetidin-1-yl]butan-1-one] had an IC50 in test [1] of less than 50 nM. Moreover, the EC50 in test [2] was less than 50 nM.
Compound `O=C(CCC(F)(F)F)N1CC(c2ccc(C(F)(F)F)cn2)C1` [Example 8, 4,4,4-trifluoro-1-[3-[5-(trifluoromethyl)-2-pyridyl]azetidin-1-yl]butan-1-one] returned an IC50 in test [1] of 1000 to 10000 nM. Besides, the EC50 in test [2] is 250 to 500 nM.
In the same order, the values of `O=C(CCC(F)(F)F)N1CC(c2ccnc(C(F)(F)F)c2)C1` [Example 12, 4,4,4-trifluoro-1-[3-[2-(trifluoromethyl)-4-pyridyl]azetidin-1-yl]butan-1-one] are 50 to 250 nM and 250 to 500 nM.
Compound `O=C(CCC(F)(F)F)N1CC(c2ccc(F)cc2C(F)(F)F)C1` [Example 25, 4,4,4-trifluoro-1-[3-[4-fluoro-2-(trifluoromethyl)phenyl]azetidin-1-yl]butan-1-one] came in with an IC50 in test [1] of 50 to 250 nM. Besides, the EC50 in test [2] lay in the range of 50 to 250 nM.
With `O=C(CCC(F)(F)F)N1CC(c2ccc(C(F)(F)F)cc2)C1` [Example 16], the 50% inhibitory concentration (IC50) in test [1] fell in the range of 250 to 500 nM. Also, the EC50 in test [2] lay in the range of 50 to 250 nM.
Turning to `O=C(CCC(F)(F)F)N1CC(c2ccnc(F)c2)C1` [Example 31, 4,4,4-trifluoro-1-[3-(2-fluoro-4-pyridyl)azetidin-1-yl]butan-1-one], the EC50 in test [2] (setting [3]) was 500 to 1000 nM.
Same read-out and setting: the same measure for `O=C(CCC(F)(F)F)N1CC(c2cncc(C(F)(F)F)c2)C1` [Example 24, 4,4,4-trifluoro-1-[3-[5-(trifluoromethyl)-3-pyridyl]azetidin-1-yl]butan-1-one]: 1000 to 10000 nM.
For `COC1(c2ccc(F)cc2)CN(C(=O)CCC(F)(F)F)C1` [Example 41, 4,4,4-trifluoro-1-(3-(4-fluorophenyl)-3-methoxyazetidin-1-yl)butan-1-one], the IC50 in test [1] was less than 50 nM. Further, the EC50 in test [2] was less than 50 nM.
`O=C(CCC(F)(F)F)N1CC(C2CC2)C1` [Example 4, 1-(3-cyclopropylazetidin-1-yl)-4,4,4-trifluoro-butan-1-one] had an IC50 in test [1] of 50 to 250 nM. The EC50 in test [2] was 250 to 500 nM.
Turning to `O=C(CCC(F)(F)F)N1CC(c2ccncc2)C1` [Example 30, 4,4,4-trifluoro-1-[3-(4-pyridyl)azetidin-1-yl]butan-1-one], in test [2] (setting [3]), the EC50 is 1000 to 10000 nM.
For `O=C(CCC(F)(F)F)N1CC(c2ccc(F)c(F)c2)C1` [Example 27, 1-[3-(3,4-difluorophenyl)azetidin-1-yl]-4,4,4-trifluoro-butan-1-one], in test [2] (setting [3]), the EC50 was less than 50 nM.
On the same count and under the same terms, as for `O=C(CCC(F)(F)F)N1CC(C2CCCCC2)C1` [Example 6, 1-(3-cyclohexylazetidin-1-yl)-4,4,4-trifluoro-butan-1-one], the figure is less than 50 nM.
Regarding `O=C(CCC(F)(F)F)N1CC(c2ccc(Cl)nc2)C1` [Example 19], the IC50 in test [1] fell in the range of 50 to 250 nM. Moreover, the EC50 in test [2] lay within 250 to 500 nM.
In the same order, the values of `CC1(c2ccc(F)cc2)CN(C(=O)CCC(F)(F)F)C1` [Example 42, 4,4,4-trifluoro-1-(3-(4-fluorophenyl)-3-methylazetidin-1-yl)butan-1-one] are less than 50 nM and less than 50 nM.
In the same order, the values of `O=C(CCC(F)(F)F)N1CC(c2cccc(F)c2)C1` [Example 29, 4,4,4-trifluoro-1-[3-(3-fluorophenyl)azetidin-1-yl]butan-1-one] are less than 50 nM and less than 50 nM.
In the case of `O=C(CCC(F)(F)F)N1CC(C2CCCC2)C1` [Example 5, 1-(3-cyclopentylazetidin-1-yl)-4,4,4-trifluoro-butan-1-one], in test [2] (setting [3]), the EC50 was less than 50 nM.
As to `O=C(CCC(F)(F)F)N1CC(F)(c2ccc(F)cc2)C1` [Example 44, 4,4,4-trifluoro-1-(3-fluoro-3-(4-fluorophenyl)azetidin-1-yl)butan-1-one], the EC50 in test [2] (setting [3]) is less than 50 nM.
On to `O=C(CCC(F)(F)F)N1CC(c2cccnc2)C1` [Example 26, 4,4,4-trifluoro-1-[3-(3-pyridyl)azetidin-1-yl]butan-1-one], for which the IC50 in test [1] lay within 1000 to 10000 nM. In addition, in test [2], the EC50 lay in the range of 1000 to 10000 nM.
For the compound `O=C(CCC(F)(F)F)N1CC(c2ccc(OCC(F)(F)F)nc2)C1` [Example 37, 4,4,4-trifluoro-1-[3-[6-(2,2,2-trifluoroethoxy)-3-pyridyl]azetidin-1-yl]butan-1-one], the EC50 in test [2] (setting [3]) was in the range of 250 to 500 nM.
In test [1], `O=C(CCC(F)(F)F)N1CC(c2cccc(C(F)(F)F)c2)C1` [Example 2, 4,4,4-trifluoro-1-[3-[3-(trifluoromethyl)phenyl]azetidin-1-yl]butan-1-one] yielded an IC50 of less than 50 nM. For the same compound, the EC50 in test [2] is less than 50 nM.
The compound `O=C(CCC(F)(F)F)N1CC(c2cccc(Cl)c2)C1` [Example 17, 1-[3-(3-chlorophenyl)azetidin-1-yl]-4,4,4-trifluoro-butan-1-one] registered an IC50 in test [1] of less than 50 nM. Also, the EC50 in test [2] is less than 50 nM.
`O=C(CCC(F)(F)F)N1CC(c2ccc(OC(F)(F)F)cc2)C1` [Example 14, 4,4,4-trifluoro-1-[3-[4-(trifluoromethoxy)phenyl]azetidin-1-yl]butan-1-one] came in with an IC50 in test [1] of 250 to 500 nM. In test [2], the EC50 was less than 50 nM.
Compound `O=C(CCC(F)(F)F)N1CC(c2ccc(F)cn2)C1` [Example 9, 4,4,4-trifluoro-1-[3-(5-fluoro-2-pyridyl)azetidin-1-yl]butan-1-one] returned an IC50 in test [1] of 50 to 250 nM. In addition, the EC50 in test [2] was in the range of 50 to 250 nM.
For `O=C(CCC(F)(F)F)N1CC(C2CCC(F)(F)CC2)C1` [Example 40, 1-(3-(4,4-difluorocyclohexyl)azetidin-1-yl)-4,4,4-trifluorobutan-1-one], the EC50 in test [2] (setting [3]) lay in the range of 50 to 250 nM.
On to `O=C(CCC(F)(F)F)N1CC(c2cc(C(F)(F)F)ccn2)C1` [Example 7, 4,4,4-trifluoro-1-[3-[4-(trifluoromethyl)-2-pyridyl]azetidin-1-yl]butan-1-one], for which, in test [1], the IC50 was in the range of 50 to 250 nM. Besides, the EC50 in test [2] fell in the range of 50 to 250 nM.
Regarding `N#Cc1ccc(C2CN(C(=O)CCC(F)(F)F)C2)cc1` [Example 43, 4-(1-(4,4,4-trifluorobutanoyl)azetidin-3-yl)benzonitrile], in test [2] (setting [3]), the EC50 is 1000 to 10000 nM.
